From patent publication US7745465B2, “Method of enhancing cellular production of molecular chaperone, hydroxylamine derivatives useful for enhancing the chaperone production and the preparation thereof” (CytRx Corporation, priority 1995, dated 2010)

Legend:
Male Sprague-Dawley rats = assay: Protection against cardiac ischaemia: survival after 5 minutes coronary occlusion and reperfusion; assay type: in vivo, rat; details: i.v. 1 mg/kgbw, 5 min. before the occlusion; non-treated control 10
Method: Male Sprague-Dawley rats (380-450 g b.w.) were anaesthetized with sodiumpentobarbital (Nembutal 60 mg/kg body weight, i.p.) and artificially ventilated with room air (2 ml/100 g; 54 stroke/minutes) via tracheotomy. The right carotid artery was catheterized and connected to a pressure transducer (BPR-01, Stoelting) for the measurement of systemic arterial blood pressure (BP) by means of a preamplifier (Hg-02, Experimetria). Hydroxylamine derivatives disclosed in Example 5 were administered via the venous cannule to jugular vein (i.v.) and orally (p.o.). Heart rate (HR) was measured by a cardiotachometer (HR-01, Experimetria). The electrocardiogram (ECG standard lead II) was recorded on a devices recorder (MR-12, Medicor) by means of subcutaneous steel needles electrodes. The chest was opened by a left thoracotomy and the heart was exteriorized by a gentle pressure on the right side of the rib cage. A 4-0 silk suture was quickly placed under the main left coronary artery as described by Selye et al. (1960). The heart was carefully replaced in the chest and the animal left to recover. Rectal temperature was monitored and kept constant at 37 C. The experimental protocol was initiated with a 15 minute stabilization period during which the observation of a sustained blood pressure less than 70 mmHg and or the occurrence of anhythmia led to exclusion. Myocardial ischemia was induced with coronary occlusion for 5 minutes and reperfusion allowed for 10 minutes.
During the entire experiment BP, HR and ECG were continuously registered on a multiscriptor (R61-6CH, Medicor). Hydroxylamine derivatives, the tautomeric forms of which are represented by structures (I) and (II), were administered 5 to 60 minutes before the occlusion after i.v. and p.o. treatment, respectively. […]
The mean duration of ventricular tachycardia (VT) and/or ventricular fibrillation (VF) during the first 3 minutes of reperfusion was analyzed by one-way analysis of variance. The incidence of VF was analyzed using a chi-square test. […] The haemodynamic variables were analyzed using Student's “t”-test. The critical level of significance was set at p<0.05. All results were expressed as a means±S.E.M. Drugs were administered i.v. in a dose of 1 mg/kgbw 5 min. before the occlusion.
The hydroxylamine derivatives that are found to be particularly advantageous for protecting an animal against ischemic/reperfusion injury are listed below. Survival (%) indicates the percent of animals survived the effects of 5 minutes coronary occlusion.

HSP72 [1] = assay: Heat stress induced HSP72 production in 3T3 cells; assay type: cell-based, mouse; details: 10^−5 M
Method: From the applied cells the 3T3 and L-929 mouse fibroblasts were cultured in MEM medium and grew in monolayer, the U-937 human leukemia cells were maintained in RPMI-1640 medium, in suspension culture, while the HeLa human epithelial cells were cultured in DMEM medium and in monolayer form. Cell cultures were maintained as described in example 6.2 (a) with the difference that cells were cultured in the above mentioned culture mediums.
Experiments were carried out applying stress before and after the drug treatment. Stress was provoked by heat, by chemical agent, HgCl2 treatment. The test compounds were applied in the treatments at the 10^−5 M concentration.
The experiments on 3T3 cell applying heat stress were performed as described in the 6.2. (c) point of example 6, with the difference that stress was induced by a 30 min. exposure at 43° C. temperature and treatment with the test compounds was performed 15 min. before or 100 min. after the heat stress.
Immunodetection was carried out using the HSP72 specific SPA 810 (StressGene) primary and the horse-radish peroxidase conjugated A9044 (Sigma) secondary antibodies. Densitometric evaluation was performed by a LKB Ultrascan XL densitometer.

Hsp72 [2] = assay: Heat stress induced hsp72 expression in rat testicular explant; assay type: cell-based; details: 10^−5 M, 15 min. before 43° C. 30 min.
Method: Testis of CFY rats weighing of 200 g were removed in sterile conditions and the released testicular tubuli were suspended in 10% fetal bovine serum containing MEM culture medium in that way that five ml suspension contained 50-100 mg tissue. The explants were incubated in 5% CO2 containing humidified air at 37° C. for one hour, then the cultures were treated with 10^−5 M concentration of the tested compounds. After a further incubation for 15 min. at 37° C., explants were exposed to heat shock at 43° C. for 30 min. The amount of the induced hsp72 was measured after a further 6 hours incubation at 37° C.

[3] = treatment 15 min. before 30 min. 43° C. heat stress
[4] = treatment 100 min. after 30 min. 43° C. heat stress

| Molecule | Survival (%) (Male Sprague-Dawley rats) | HSP72 level relative to the stress exposed control (HSP72 [1]; [3]) | Level of hsp72 relative to the stress exposed control (Hsp72 [2]) | HSP72 level relative to the stress exposed control (HSP72 [1]; [4]) |
| --- | --- | --- | --- | --- |
| O=C(O)/C=C\C(=O)O.OC(CON=C(Cl)c1cccnc1)CN1CCOCC1 (stereo not drawn) [N-[2-hydroxy-3-(morpholin-1-yl-propoxy]-3-pyridincarboxamidoyl chloride (Z)-2-butendioate (1:1)] | 71% | – | – | – |
| CC(=NOCC(O)CNC(C)(C)C)c1cccc(C(F)(F)F)c1.CC(=O)O (stereo not drawn) [1-{[3-(t-butylamino)-2-hydroxy-propoxy]-imino}-1-(m-trifluoromethyl-phenyl)-ethane acetate] | – | +++ (>100%) | + (21-50%) | – |
| O=C(O)/C=C\C(=O)O.O[C@@H](CON=C(Cl)c1cccnc1)CN1CCCCC1 [Example 77, /R/(+)-N-[2-hydroxyl-3-(1-piperidinyl)propoxy]-3-pyridinecarboximidoyl chloride (Z)-2-butenedioate (1:1)] | 67% | +++ (>100%) | – | – |
| CC(C)(C)NCC(O)CON=C(Cl)c1cccnc1.O=C(O)/C=C\C(=O)O (stereo not drawn) [N-[2-hydroxy-3-(tert-butyl-amino)-propoxy]-3-pyridincarboxamidoyl chloride (Z)-2-butendioate (1:1)] | 57% | – | – | – |
| 5,6-dihydro-3-(4-chloro-phenyl)-5-[N-methyl-piperidinium-1-yl]-methyl-4H-1,2,4-oxadiazine iodide | – | ++ (51-100%) | + (21-50%) | – |
| CCN(CC)C(=NOCC(O)CN1CCCCC1)c1cccnc1.Cl (stereo not drawn) [Example 51] | 75% | +++ (>100%) | – | – |
| CC(C)(C)NC(=O)NOCC(O)CN1CCCCC1 (stereo not drawn) [Example 62, N-tert-butyl-N′-[(2-hydroxy-3-(1-piperidinyl)propoxy)]-urea] | 57% | – | – | – |
| CCCCCCNC(=O)NOCCCN1CCCCC1 [Example 61, N-hexyl-N′-[3-(1-piperidinyl)propoxy]-urea] | – | ++ (51-100%) | 0 (0 indicates that the treatment altered by ±20% the stress induced hsp72 level in the cells) | – |
| CCN(CC)CCCON=C(Cl)c1cccnc1.Cl [O-(3-diethylamino-propoxy)-3-pyridine-carboximidoyl-chloride hydrochloride] | – | +++ (>100%) | 0 (0 indicates that the treatment altered by ±20% the stress induced hsp72 level in the cells) | – |
| CCN(CC)CC(O)CON=C(Cl)c1cccnc1.Cl (stereo not drawn) [N-[2-hydroxy-3-(diethyl-amino)-propoxy]-3-pyridincarboximidoyl chloride hydrochloride (1:1)] | 62% | – | – | – |
| C[n+]1cccc(C(Cl)=NOCC(O)C[N+]2(C)CCCCC2)c1.[I-].[I-] (stereo not drawn) [Example 16, N′-[2-hydroxy-3-(1-methyl-1-piperidinium-1-yl)propoxy]-N-methyl-pyridinium-3-carboximidoyl chloride diiodide] | 67% | +++ (>100%) | – | +++ (>100%) |
| COC(=NOCC(O)CN1CCCCC1)c1cccnc1.O=C(O)/C=C\C(=O)O (stereo not drawn) [Example 66, Methyl-N-[2-hydroxy-3-(1-piperidinyl)propoxy]-3-pyridinecarboximidate (Z)-2-butenedioate (1:1)] | 57% | – | – | – |
| O=C(O)/C=C\C(=O)O.OC(CON=C(Cl)c1cccnc1)CN1CCCC1 (stereo not drawn) [N-[2-hydroxy-3-(pyrrolidin-1-yl)-propoxy]-3-pyridincarboximidoyl chloride (Z)-2-butendioate (1:1)] | 67% | – | – | – |
| COc1ccc(CC(Cl)=NOCC(O)CN2CCCCC2)cc1OC (stereo not drawn) [N-[2-hydroxy-3-(1-piperidyl)-propoxy]-∀-(3,4-dimethoxy-phenyl)-acetimidoyl chloride] | 67% | – | – | – |
| Cl.ClC(=NOCCCN1CCCCC1)c1cccs1 [N-[3-(1-piperidinyl)-propoxy]-tiophene-2-carboximidoyl-chloride-hydrochloride] | – | – | + + | – |
| Cl.Cl.N=C(NOCC(O)CN1CCCCC1)c1nccc2ccccc12 (stereo not drawn) [Example 46, N-[2-hydroxy-3-(1-piperidinyl)propoxy]-1-isoquinolinecarboximidoyl dihydrochloride] | – | – | + + + | – |
| CC(C)(C)NCC(O)CONC(=N)c1cccc(C(F)(F)F)c1.Cl.Cl (stereo not drawn) [Example 47, N-[3-[(1,1-dimethylethyl)amino]-2-hydroxypropoxy]-3-trifluoromethyl-benzenecarboximidamide dihydrochloride] | 100% | – | – | – |
| CC(C)NCC(O)CON=C(Cl)c1cccc(C(F)(F)F)c1.Cl (stereo not drawn) [Example 10, N-[2-hydroxy-3-[(1-methylethyl)amino]propoxy]-3-trifluoromethyl-benzene-carboximidoyl chloride monohydrochloride] | 67% | – | – | – |
| N=C(NOCC(CN1CCCCC1)OC(=O)c1ccccc1)c1cccnc1.O=C(O)/C=C\C(=O)O (stereo not drawn) [Example 20, N-[2-benzoyloxy-3-(1-piperidinyl)propoxy]-3-pyridinecarboximidamide (Z)-2-butenedioate (1:1)] | 100% | – | – | – |
| O=C(O)/C=C\C(=O)O.OC(CON=C(Cl)c1ccncc1)CN1CCCCC1 (stereo not drawn) [Example 8, N-[2-hydroxy-3-(1-piperidinyl)propoxy]-4-pyridinecarboximidoyl chloride (Z)-2-butenedioate (1:1)] | 100% | – | – | ++ (51-100%) |
| Cl.OC(CON=C(Cl)c1ccco1)CN1CCCCC1 (stereo not drawn) [Example 7, N-[2-hydroxy-3-(1-piperidinyl)propoxy]-2-furanecarboximidoyl chloride monohydrochloride] | 80% | – | – | – |
| Cl.OC(CON=C(Cl)c1cccc(C(F)(F)F)c1)CN1CCCCC1 (stereo not drawn) [Example 13, N-[2-hydroxy-3-(1-piperidinyl)propoxy]-3-trifluoromethyl-benzenecarboximidoyl chloride monohydrochloride] | 60% | – | – | – |
| O=C(NOCC(O)CN1CCCCC1)c1cccc2ccccc12 (stereo not drawn) [Example 54, N-[2-hydroxy-3-(1-piperidinyl)propoxy]naphthalene-1-carboxamide] | 80% | +++ (>100%) | – | ++ (51-100%) |
| CC(C)NCC(O)CON=C(Cl)c1cccnc1.O=C(O)/C=C\C(=O)O (stereo not drawn) [N-[2-hydroxy-3-prop-2-yl-amino)-propoxy]-3-pyridincarboximidoyl chloride (Z)-butendioate (1:1)] | 60% | – | – | – |
| O=C(NOCC(O)CN1CCCCC1)Nc1cccc([N+](=O)[O-])c1 (stereo not drawn) [Example 63, N-(3-nitro-phenyl)-N′-[(2-hydroxy-3-(1-piperidinyl)propoxy)]-urea] | 50% | – | – | – |
